Data taken from article PMC5413024, “Mechanistic insights into the more potent effect of KP-54 compared to KP-10 in vivo” (PLoS ONE, 2017).

Assays:
[1] = test system: plasma LH levels; assay: Study 1: plasma LH after a single i.p. injection of kisspeptin; type: in vivo, mouse; conditions: male mice, single i.p. injection of 1 nmol, ELISA, mean ± s.e.m.
Procedure: Male mice received a single intraperitoneal (i.p.) injection of 100 μl of PBS (vehicle control; 137 mM NaCl, 2.7 mM KCl, 10 mM Na2HPO4, 1.8mM KH2PO4, pH 7.4), KP-10 (1 nmol), or KP-54 (1 nmol) in PBS and LH levels in the plasma measured at 10 min and 2 h after treatment to compare early and late responses points. We chose the 10 min point as some studies have shown that KP-10 injection results in maximal LH secretion after 10–15 min [16, 18]. 100 μl of blood was collected from a tail vein 10 min after injection, mixed with 5 μl EDTA and centrifuged at 10,000 x g for 10 min at 4°C. The plasma supernatant was stored at -20°C until assayed. Two hours after injection, mice were deeply anaesthetized with pentobarbital (100mg/kg i.p.), ~300 μl of blood was rapidly collected from the vena cava and processed as described above. Finally the mice were perfused intracardially with 20 ml of 4% paraformaldehyde in PBS. Brains were removed and incubated for 1 h in the same fixative as for perfusion and placed in PBS for sectioning and immunohistochemistry processing.
3–5 month old wild-type (129S6/SvEv) male mice were used in this study. The mice were housed in open cages on a 12 hour light cycle (lights on at 0700 h) at a controlled temperature (22°C), and were provided with food and water ad libitum. […]

[2] = men / humans; ref [5], [30] (KP-10), ref [5] (KP-54); cited from earlier work
Text: It should be noted, however that the RIA used to measure KP-54 may also detect shorter breakdown products of this protein that might be biologically inert. It is likely that the lack of GnRH neuronal activation and sustained LH release by KP-10 is mainly due to its instability. It is noteworthy that we failed ...

CC[C@H](C)[C@H](NC(=O)[C@H](CCC(N)=O)NC(=O)[C@H](CCCNC(=N)N)NC(=O)[C@H](CO)NC(=O)[C@H](Cc1c[nH]cn1)NC(=O)[C@@H]1CCCN1C(=O)[C@H](C)NC(=O)[C@H](CO)NC(=O)[C@H](CC(C)C)NC(=O)CNC(=O)[C@@H]1CCCN1C(=O)[C@H](CCC(N)=O)NC(=O)[C@H](CCC(N)=O)NC(=O)[C@H](CCCNC(=N)N)NC(=O)[C@H](CO)NC(=O)CNC(=O)[C@H](CO)NC(=O)[C@H](CO)NC(=O)[C@H](CCC(=O)O)NC(=O)[C@@H]1CCCN1C(=O)[C@@H]1CCCN1C(=O)[C@@H]1CCCN1C(=O)[C@H](CO)NC(=O)[C@H](CC(C)C)NC(=O)[C@H](CO)NC(=O)[C@@H](NC(=O)CN)[C@@H](C)O)C(=O)N1CCC[C@H]1C(=O)N[C@@H](C)C(=O)N1CCC[C@H]1C(=O)N[C@@H](CCC(N)=O)C(=O)NCC(=O)N[C@@H](C)C(=O)N[C@H](C(=O)N[C@@H](CC(C)C)C(=O)N[C@H](C(=O)N[C@@H](CCC(N)=O)C(=O)N[C@@H](CCCNC(=N)N)C(=O)N[C@@H](CCC(=O)O)C(=O)N[C@@H](CCCCN)C(=O)N[C@@H](CC(=O)O)C(=O)N[C@@H](CC(C)C)C(=O)N1CCC[C@H]1C(=O)N[C@@H](CC(N)=O)C(=O)N[C@@H](Cc1ccc(O)cc1)C(=O)N[C@@H](CC(N)=O)C(=O)N[C@@H](Cc1c[nH]c2ccccc12)C(=O)N[C@@H](CC(N)=O)C(=O)N[C@@H](CO)C(=O)N[C@@H](Cc1ccccc1)C(=O)NCC(=O)N[C@@H](CC(C)C)C(=O)N[C@@H](CCCNC(=N)N)C(=O)N[C@@H](Cc1ccccc1)C(N)=O)C(C)C)C(C)C [KP-54]
plasma LH level 10 min post-injection ([1]; tail vein blood, n = 8, PBS 0.06 ± 0.04): 5.70 ± 0.69 ng/mL
plasma LH level 2 hours post-injection ([1]; vena cava blood, n = 8): 6.42 ± 1.74 ng/mL
half-life in the blood stream in humans [2]: 28 min
